Experimental findings from patent US11370794B2, “Toll-like receptor antagonist compounds and methods of use” (Dynavax Technologies Corporation, priority 2016, dated 2022) are described below.

The target in assay [1] is T1, human TLR8 (Homo sapiens, UniProt Q9NR97).
T1 construct: endogenous in cells; host or cells: primary human monocytes (CD14 microbeads) from buffy coats of healthy donors
T1 sequence (Q9NR97 27-1041): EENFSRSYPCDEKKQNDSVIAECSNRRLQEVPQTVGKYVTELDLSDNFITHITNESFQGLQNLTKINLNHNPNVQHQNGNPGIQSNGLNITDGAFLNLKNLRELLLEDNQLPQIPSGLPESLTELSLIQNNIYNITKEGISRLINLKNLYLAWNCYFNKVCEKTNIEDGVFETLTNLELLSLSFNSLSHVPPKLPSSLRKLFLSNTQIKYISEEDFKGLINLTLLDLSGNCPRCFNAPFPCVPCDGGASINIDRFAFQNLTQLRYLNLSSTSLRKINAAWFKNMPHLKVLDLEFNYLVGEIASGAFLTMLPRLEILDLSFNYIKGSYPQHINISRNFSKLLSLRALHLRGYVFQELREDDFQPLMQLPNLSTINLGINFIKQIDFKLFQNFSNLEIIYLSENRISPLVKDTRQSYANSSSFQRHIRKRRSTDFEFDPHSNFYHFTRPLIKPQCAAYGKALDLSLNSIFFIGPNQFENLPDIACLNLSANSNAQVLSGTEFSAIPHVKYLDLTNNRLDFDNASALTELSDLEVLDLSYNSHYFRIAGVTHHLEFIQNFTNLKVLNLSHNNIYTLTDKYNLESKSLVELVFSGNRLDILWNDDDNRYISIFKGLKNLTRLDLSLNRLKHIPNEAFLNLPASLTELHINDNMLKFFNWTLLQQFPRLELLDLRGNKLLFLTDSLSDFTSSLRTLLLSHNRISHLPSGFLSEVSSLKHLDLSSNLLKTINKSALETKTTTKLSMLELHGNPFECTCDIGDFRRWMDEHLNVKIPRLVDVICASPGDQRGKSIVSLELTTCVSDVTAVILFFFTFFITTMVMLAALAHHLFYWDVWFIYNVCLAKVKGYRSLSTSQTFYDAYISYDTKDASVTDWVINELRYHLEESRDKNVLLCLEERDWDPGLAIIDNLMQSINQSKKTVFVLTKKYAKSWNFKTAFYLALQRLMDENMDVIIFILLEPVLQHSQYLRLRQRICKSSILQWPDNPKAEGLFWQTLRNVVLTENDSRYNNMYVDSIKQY
In words: Inhibition of human TLR8 in human monocytes (TNF-alpha / IL-1 beta ELISA). Type of assay: cell-based. The note with it: human monocytes, agonist ORN8L 100 μg/mL, 24 hours. From the text:
Example B2—Inhibition of Human TLR8 in Human Monocytes
When placed in cell culture, engagement of TLR8 with an agonist leads to expression and release of cytokines into the media.
Buffy coats from anonymized, healthy human donors. CD14 microbeads (Milteny Cat. No. 130-050-201). TLR8 agonist, (5′-M2UGCUGCUUGUG-/glycerol/-GUGUUCGUCGUM2-5′ with M2=C6-linker, ORN8L, RNA oligonucleotide (Chem Genes Corp.). Human TNF-alpha ELISA kit (Mabtech Cat. No. 3510-1H-20). Human interleukin (IL)-1 beta ELISA kit (Mabtech Cat. No. 3415-1H-20).
Following isolation of monocytes from buffy coats, human monocytes were plated into 96 well plates at approximately 200,000 cells per well. Test compounds were serially diluted and added to the plates. Immediately after adding test compounds, the TLR8 agonist (ORN8L, RNA oligonucleotide) was added to a final concentration of 100 μg/mL. Cells were incubated for 24 hours at 37° C. A portion of the media supernatant was analyzed for the presence of TNF-alpha and/or IL-1 beta using ELISA kits. The amount of TNF-alpha or IL-1 beta produced is a reflection of the amount of TLR8-dependent receptor activity. The IC50 values (the concentration at which 50% of the TLR8-dependent receptor activity is reduced) were calculated based upon the TLR8-dependent receptor activity over a range of different test compound concentrations.
In general terms: ELISA stands for enzyme-linked immunosorbent assay.

For assay [2], the target named is T2, human TLR9 (Homo sapiens, UniProt Q9NR96).
T2 construct: endogenous in cells; host or cells: primary human B cells (CD19 microbeads) from buffy coats of healthy donors
T2 sequence (Q9NR96 26-1032): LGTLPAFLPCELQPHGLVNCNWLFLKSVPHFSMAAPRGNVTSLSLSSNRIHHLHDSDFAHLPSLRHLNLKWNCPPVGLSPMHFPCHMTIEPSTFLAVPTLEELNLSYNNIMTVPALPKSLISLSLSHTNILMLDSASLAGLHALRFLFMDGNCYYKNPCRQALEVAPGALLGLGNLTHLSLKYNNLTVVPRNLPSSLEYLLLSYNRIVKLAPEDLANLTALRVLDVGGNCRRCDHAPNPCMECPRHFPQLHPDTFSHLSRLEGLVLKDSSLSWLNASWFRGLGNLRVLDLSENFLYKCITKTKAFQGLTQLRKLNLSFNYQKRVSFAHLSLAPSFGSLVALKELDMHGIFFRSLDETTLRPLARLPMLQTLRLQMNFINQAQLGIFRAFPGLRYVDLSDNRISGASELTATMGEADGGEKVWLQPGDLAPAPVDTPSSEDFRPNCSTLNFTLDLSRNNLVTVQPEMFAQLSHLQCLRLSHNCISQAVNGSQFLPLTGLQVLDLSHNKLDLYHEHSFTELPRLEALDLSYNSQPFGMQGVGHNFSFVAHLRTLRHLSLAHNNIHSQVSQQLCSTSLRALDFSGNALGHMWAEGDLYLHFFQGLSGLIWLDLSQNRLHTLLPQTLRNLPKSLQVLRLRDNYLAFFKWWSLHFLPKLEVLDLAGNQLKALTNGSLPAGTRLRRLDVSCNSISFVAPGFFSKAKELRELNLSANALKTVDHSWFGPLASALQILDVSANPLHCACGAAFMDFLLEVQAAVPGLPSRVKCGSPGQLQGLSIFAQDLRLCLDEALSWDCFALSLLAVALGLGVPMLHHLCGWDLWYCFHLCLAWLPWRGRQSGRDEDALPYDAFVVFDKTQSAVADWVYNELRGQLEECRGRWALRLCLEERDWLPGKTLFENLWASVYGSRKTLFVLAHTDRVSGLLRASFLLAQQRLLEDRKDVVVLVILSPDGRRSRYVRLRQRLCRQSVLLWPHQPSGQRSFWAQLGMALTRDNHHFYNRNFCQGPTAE
Description: Inhibition of human TLR9 in human B cells (IL-6 ELISA). The note with it: for IC50: human B cells, agonist 1018 ISS 1 μM, IL-6 readout, 48 hours, range about 0.01 to 10 μM, read-out: Human TLR9 IC50. Type of assay: cell-based. Here is the method: Example B3—Inhibition of Human TLR9 in Human B Cells
When placed in cell culture, engagement of TLR9 with an agonist leads to expression and release of cytokines into the media.
Buffy coats from anonymized, healthy human donors. CD19 microbeads (Miltenyi Cat. No. 130-050-301). TLR9 agonist, 1018 ISS, CpG-containing DNA oligonucleotide. Human interleukin (IL)-6 ELISA kit (Mabtech Cat. No. 3460-1H-20).
Following isolation of […] from buffy coats, human B cells were plated into 96 well plates at approximately 300,000 cells per well. Test compounds were serially diluted and added to the plates. Test compounds were typically assayed using a concentration range from about 0.01 μM to about 10 μM. Certain test compounds were further assayed in an expanded dilution series using a compound concentration range from about 0.001 μM to about 30 μM. Immediately after adding test compounds, the TLR9 agonist (1018 ISS, CpG-containing DNA oligonucleotide) was added to a final concentration of 1 μM. Cells were incubated for 48 hours at 37° C. A portion of the media supernatant was analyzed for the presence of IL-6 using ELISA kits. The amount of IL-6 produced is a reflection of the amount of TLR9-dependent receptor activity. The IC50 values (the concentration at which 50% of the TLR9-dependent receptor activity is reduced) were calculated based upon the TLR9-dependent receptor activity over a range of different test compound concentrations.

Where [3] appears, read: IL-1 beta readout, read-out: Human TLR8 IC50 IL-1b.
Where [4] appears, read: TNF-alpha readout, read-out: Human TLR8 IC50 TNF-a.

Read-outs that look alike come from different tables or passages of the source. Bounds are passed on as bounds.

In general, IC50 refers to the midpoint of a concentration-inhibition curve. For the compound `Cc1ccc(-n2nc3c(N4CCC(C(=O)NCCCN(C)C)C4)nnc(C)c3c2C)cc1` (centres unmarked) [compound 13, 1-(3,4-dimethyl-2-(p-tolyl)-2H-pyrazolo[3,4-d]pyridazin-7-yl)-N-(3-(dimethylamino)propyl)pyrrolidine-3-carboxamide], the IC50 in assay [1] (setting [3]) was over 10000 nM; in assay [1] (setting [4]), over 10000 nM; in assay [2], 292 nM.
Consider `Cc1ccc(-n2nc3c(N4CCCC(C(=O)NCCNc5ccccc5)C4)nnc(C)c3c2C)cc1` (centres unmarked) [compound 58, 1-(3,4-dimethyl-2-(p-tolyl)-2H-pyrazolo[3,4-d]pyridazin-7-yl)-N-(2-(phenylamino)ethyl)piperidine-3-carboxamide], for which the IC50 is at least 20000 nM in assay [1] (setting [4]) and 4820 nM in assay [2].
For `Cc1ccc(-n2nc3c(N4CCC(C(=O)N5CCC6(CC5)CNC6)CC4)nnc(C)c3c2C)cc1` [compound 73, (1-(3,4-dimethyl-2-(p-tolyl)-2H-pyrazolo[3,4-d]pyridazin-7-yl)piperidin-4-yl)(2,7-diazaspiro[3.5]nonan-7-yl)methanone], in that order: at least 20000 nM and 1140 nM.
For `Cc1ccc(-n2nc3c(N4CCC(C(=O)NCCCN(C)C)CC4)nnc(-c4ccccc4)c3c2C)cc1` [compound 35, N-(3-(dimethylamino)propyl)-1-(3-methyl-4-phenyl-2-(p-tolyl)-2H-pyrazolo[3,4-d]pyridazin-7-yl)piperidine-4-carboxamide], in that order: at least 20000 nM and 3710 nM.
`Cc1ccc(-n2nc3c(N4CC(C(=O)NCCCN(C)C)C4)nnc(C)c3c2C)cc1` [compound 15, 1-(3,4-dimethyl-2-(p-tolyl)-2H-pyrazolo[3,4-d]pyridazin-7-yl)-N-(3-(dimethylamino)propyl)azetidine-3-carboxamide]: the half-maximal inhibitory concentration (IC50) is over 10000 nM in assay [1] (setting [3]), over 10000 nM in assay [1] (setting [4]) and 250 nM in assay [2].
Consider `Cc1ccc(-n2cc3cnnc(N4CCC(C(=O)NCCCN(C)C)CC4)c3n2)cc1` [Compound No. 29, N-(3-(dimethylamino)propyl)-1-(2-(p-tolyl)-2H-pyrazolo[3,4-d]pyridazin-7-yl)piperidine-4-carboxamide], for which the half-maximal inhibitory concentration (IC50) was 1610 nM in assay [1] (setting [3]), over 10000 nM in assay [1] (setting [4]) and 7 nM in assay [2]. The “inhibits TLR9-dependent responses (in words)” value in assay [2] (summary statement of the description) is listed as “inhibit”.
As for `Cc1ccc(-n2nc3c(N4CCC(C(=O)N5CCC6(CNC6)C5)CC4)nnc(C)c3c2C)cc1` [compound 74, (1-(3,4-dimethyl-2-(p-tolyl)-2H-pyrazolo[3,4-d]pyridazin-7-yl)piperidin-4-yl)(2,6-diazaspiro[3.4]octan-6-yl)methanone], the results for the IC50 in assay [1] (setting [4]) and in assay [2] were at least 20000 nM and 2590 nM, respectively.
On to `Cc1nnc(N2CCCC(C(=O)NCCCN3CCOCC3)C2)c2nn(-c3ccccc3)c(C)c12` (centres unmarked) [49x, 1-(3,4-dimethyl-2-phenyl-2H-pyrazolo[3,4-d]pyridazin-7-yl)-N-(3-morpholinopropyl)piperidine-3-carboxamide], for which the half-maximal inhibitory concentration (IC50) in assay [1] (setting [3]) came out at 3940 nM; in assay [1] (setting [4]), 3560 nM; in assay [2], 29 nM.
`Cc1ccc(-n2nc3c(N4CCC(C(=O)NCCCCN(C)C)CC4)nnc(C)c3c2C)cc1` [compound 31, 1-(3,4-dimethyl-2-(p-tolyl)-2H-pyrazolo[3,4-d]pyridazin-7-yl)-N-(4-(dimethylamino)butyl)piperidine-4-carboxamide]: the IC50 in assay [1] (setting [4]) stood at 2680 nM; in assay [2], 86 nM.
Take `Cc1nnc(N2CCC(C(=O)NCCN3CCOCC3)CC2)c2nn(-c3ccccc3)c(C)c12` [32x, 1-(3,4-dimethyl-2-phenyl-2H-pyrazolo[3,4-d]pyridazin-7-yl)-N-(2-morpholinoethyl)piperidine-4-carboxamide]: the figures for the half-inhibitory concentration (IC50) in assay [1] (setting [3]), in assay [1] (setting [4]) and in assay [2] were over 10000 nM, over 10000 nM and 341 nM, respectively.
`Cc1ccc(-n2nc3c(N4CCCC(C(=O)NCCN(C)C)C4)nnc(C)c3c2C)cc1` (centres unmarked) [45x, 1-(3,4-dimethyl-2-(p-tolyl)-2H-pyrazolo[3,4-d]pyridazin-7-yl)-N-(2-(dimethylamino)ethyl)piperidine-3-carboxamide]: the half-maximal inhibitory concentration (IC50) in assay [1] (setting [4]) was at least 20000 nM; in assay [2], 9 nM.
For `Cc1ccc(-n2cc3cnnc(N4CCCC(C(=O)NCCN(C)C)C4)c3n2)cc1` (centres unmarked) [compound 47, N-(2-(dimethylamino)ethyl)-1-(2-(p-tolyl)-2H-pyrazolo[3,4-d]pyridazin-7-yl)piperidine-3-carboxamide], in that order: 2620 nM and 27 nM.
For `Cc1ccc(-n2nc3c(N4CCC(C(=O)NCCCN(C)C)CC4)nnc(I)c3c2C)cc1` [compound 41, N-(3-(dimethylamino)propyl)-1-(4-iodo-3-methyl-2-(p-tolyl)-2H-pyrazolo[3,4-d]pyridazin-7-yl)piperidine-4-carboxamide], in that order: at least 20000 nM and 793 nM.
